Laboratory results: patent US20240368150A1 (Hoffmann-La Roche Inc., priority 2021, published 2024)
Like-named read-outs stand apart in the source and are kept apart here.

Assays:
hDGKalpha(1-735)-N-His = hDGKalpha(1-735)-N-His (Homo sapiens (Human), UniProt P23743); experiment: DGKalpha ADP Glo assay (in vitro DGK inhibition); type: biochemical; conditions: DLG 125 uM, ATP 25 μM, DGK α 4 nM, 1 hour reaction
Experimental: (§1) DGK α and ζ kinase use ATP to phosphorylate the substrate 1,2-dilauroyl-sn-glycerol (DLG, incorporated in the liposomes). ATP is converted to ADP as a result of this enzymatic reaction. After the kinase reaction, an ATP-depletion reagent is added to terminate the kinase reaction and deplete any remaining ATP, leaving only ADP. Second, a detection reagent is added to simultaneously convert ADP to ATP and allow the newly synthesized ATP to be converted to light using a coupled luciferase/luciferin reaction.
(§2) Purification of both enzymes was performed as previously described by Takahashi et al., PeerJ, 2018 (Takahashi, D.; Sakane, F. Expression and purification of human diacylglycerol kinase alpha from baculovirus-infected insect cells for structural studies. PeerJ 2018, 6, No. e5449).
(§3) A concentrated liposome solution was prepared in assay buffer without DTT and BSA: 2 mM of DLG in 21 mM of total liposome (2 mM DLG/8 mM PS/11 mM PC). […] The reactions were started by addition of DGK α and ζ kinases at 4 nM and 2 nM final concentrations, respectively. After 1 hour reaction, the amount of ADP formed was detected with the ADP-Glo kinase assay (Promega) according to the manufacturer instructions. Compounds were added in 11-points dose response, starting at […], 1:3 dilutions, with a final DMSO concentration of 2%. The multidrop combi was used as a liquid handler and luminescence was read with 0.5 s by the envision reader (PE).

primary human T-cells [1] = test system: primary human T-cells
hDGKzeta(1-928)-N-His = hDGKzeta(1-928)-N-His (Homo sapiens (Human), UniProt Q13574); experiment: DGKzeta ADP Glo assay (in vitro DGK inhibition); type: biochemical; conditions: DLG 125 uM, ATP 50 μM, DGK ζ 2 nM, 1 hour reaction
Chain of hDGKzeta(1-928)-N-His (Q13574 whole entry): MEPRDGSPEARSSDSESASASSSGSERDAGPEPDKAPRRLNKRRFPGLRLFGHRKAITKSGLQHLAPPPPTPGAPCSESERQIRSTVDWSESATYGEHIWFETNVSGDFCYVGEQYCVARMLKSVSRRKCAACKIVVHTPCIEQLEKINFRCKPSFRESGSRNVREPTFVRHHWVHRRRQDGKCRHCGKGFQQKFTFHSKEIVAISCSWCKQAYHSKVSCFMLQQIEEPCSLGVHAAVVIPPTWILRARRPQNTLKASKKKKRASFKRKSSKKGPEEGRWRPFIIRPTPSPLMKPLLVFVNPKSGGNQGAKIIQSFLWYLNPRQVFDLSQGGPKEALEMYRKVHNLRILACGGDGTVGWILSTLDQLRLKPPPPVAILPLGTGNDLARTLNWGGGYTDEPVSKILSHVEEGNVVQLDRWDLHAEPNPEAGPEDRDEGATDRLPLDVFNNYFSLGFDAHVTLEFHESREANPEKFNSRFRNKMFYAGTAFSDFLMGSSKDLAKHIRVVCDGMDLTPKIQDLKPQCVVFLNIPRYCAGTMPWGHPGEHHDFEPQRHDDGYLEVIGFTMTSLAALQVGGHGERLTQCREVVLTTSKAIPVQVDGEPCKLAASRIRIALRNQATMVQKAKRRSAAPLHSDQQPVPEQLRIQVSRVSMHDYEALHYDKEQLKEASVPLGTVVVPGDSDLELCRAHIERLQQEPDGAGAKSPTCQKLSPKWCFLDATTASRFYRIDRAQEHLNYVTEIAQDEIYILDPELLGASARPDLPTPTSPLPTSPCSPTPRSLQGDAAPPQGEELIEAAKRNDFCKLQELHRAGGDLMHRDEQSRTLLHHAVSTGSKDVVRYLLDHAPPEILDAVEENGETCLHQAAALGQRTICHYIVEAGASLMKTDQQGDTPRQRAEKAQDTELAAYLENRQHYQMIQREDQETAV
Experimental: as §1, §2, §3

primary human T-cells [2] = experiment: Proliferation assay after 5 days (CellTiter-Glo, CD3 stimulation; PBS counter screen); type: cell-based; conditions: CD3 stimulation; for Emax / Emax proliferation (% activation): 5 days, normalized to reference compound A1 as stimulator control = 100%, DMSO neutral control; for Emax: read-out: Emax proliferation (% activation); for EC50: primary human T-cells, CellTiter-Glo after 5 days, EC50 of fitted sigmoidal curve, read-out: Tcell Proliferation CD3 EC50
In short: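 Primary human T-cells, with or without CD3 stimulation, exposed to compounds for 5 days; cell number read as ATP by CellTiter-Glo 2.0 luminescence after 45 min equilibration and 15 min reagent incubation at room temperature. Compounds activating unstimulated cells or reducing viability were flagged.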

Chain of hDGKalpha(1-735)-N-His (P23743 whole entry): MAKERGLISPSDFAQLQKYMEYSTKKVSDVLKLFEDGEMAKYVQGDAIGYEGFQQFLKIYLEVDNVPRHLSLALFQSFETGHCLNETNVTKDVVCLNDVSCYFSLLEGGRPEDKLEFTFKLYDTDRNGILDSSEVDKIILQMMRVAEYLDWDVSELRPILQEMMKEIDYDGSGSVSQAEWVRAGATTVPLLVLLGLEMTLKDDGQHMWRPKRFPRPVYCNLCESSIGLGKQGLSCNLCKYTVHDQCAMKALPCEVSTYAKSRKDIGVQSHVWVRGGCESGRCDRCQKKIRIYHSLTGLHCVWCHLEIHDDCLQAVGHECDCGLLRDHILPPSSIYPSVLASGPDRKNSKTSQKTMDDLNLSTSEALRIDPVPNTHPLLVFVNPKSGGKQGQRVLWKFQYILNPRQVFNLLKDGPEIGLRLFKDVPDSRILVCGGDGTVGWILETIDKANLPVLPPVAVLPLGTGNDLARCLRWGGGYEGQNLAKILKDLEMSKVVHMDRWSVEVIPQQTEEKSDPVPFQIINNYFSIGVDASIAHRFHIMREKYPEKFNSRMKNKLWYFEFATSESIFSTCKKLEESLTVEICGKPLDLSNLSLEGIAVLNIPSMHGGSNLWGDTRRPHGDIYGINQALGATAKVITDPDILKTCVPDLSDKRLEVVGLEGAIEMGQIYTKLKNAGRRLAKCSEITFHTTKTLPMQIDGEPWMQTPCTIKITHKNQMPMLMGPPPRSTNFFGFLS

Structure (SMILES) | IC50 (hDGKalpha(1-735)-N-His) [nM] | EC50 (primary human T-cells [1]) [nM] | IC50 (hDGKzeta(1-928)-N-His) [nM] | Emax (primary human T-cells [2]; Homo sapiens, T-cell, 120 h) [%] | EC50 (primary human T-cells [2]; Homo sapiens, T-cell, 120 h) [nM] | Emax proliferation (% activation) (primary human T-cells [2]) | EC50 (primary human T-cells [2]) [nM]
CC(C)(C)NC(=O)c1nc(-c2cc3c(cc2F)S(=O)(=O)C[C@H](N)C(=O)N3Cc2ccc(Cl)cc2)no1 [Example 293, 3-[(3R)-3-amino-5-[(4-chlorophenyl)methyl]-8-fluoro-1,1,4-trioxo-2,3-dihydro-1λ^6,5-benzothiazepin-7-yl]-N-tert-butyl-1,2,4-oxadiazole-5-carboxamide] | 1150 | 3310 | 1200 | 92 | 2070 | – | –
N[C@H]1C[S+]([O-])c2cc(F)c(-c3noc(N4CCOC5CC54)n3)cc2N(Cc2ccc(Cl)cc2)C1=O (single isomer, unassigned; epimer b) [Example 208] | 2640 | 5250 | 147 | – | – | 106 | 5310
N[C@H]1C[S+]([O-])c2cc(F)c(-c3noc(N4CCOC(C(F)(F)F)C4)n3)cc2N(Cc2ccc(Cl)cc2)C1=O (single isomer, unassigned; epimer a) [Example 213] | 2140 | 3270 | 52 | – | – | 222 | 1390
CC(C)Oc1ccc(CN2C(=O)[C@@H](N)CS(=O)(=O)c3cc(F)c(-c4noc(C(N)C(F)(F)F)n4)cc32)cc1 (stereo partly drawn) [Example 48, (3R)-3-amino-7-[5-(1-amino-2,2,2-trifluoro-ethyl)-1,2,4-oxadiazol-3-yl]-8-fluoro-5-[(4-isopropoxyphenyl)methyl]-1,1-dioxo-2,3-dihydro-1λ^6,5-benzothiazepin-4-one] | 403 | 2330 | 114 | 248 | 3190 | – | –
CC1(C)CN(c2nc(-c3cc4c(cc3F)S(=O)(=O)C[C@H](N)C(=O)N4Cc3ccc(Cl)cc3)no2)CCO1 [Example 205, (3R)-3-amino-5-[(4-chlorophenyl)methyl]-7-[5-(2,2-dimethylmorpholin-4-yl)-1,2,4-oxadiazol-3-yl]-8-fluoro-1,1-dioxo-2,3-dihydro-16,5-benzothiazepin-4-one] | 299 | 1050 | 147 | 119 | 2120 | – | –
CC(C)Oc1ccc(CN2C(=O)[C@@H](N)CS(=O)(=O)c3cc(F)c(-c4noc(N5CCOC6(CC6)C5)n4)cc32)cn1 [Example 214, (3R)-3-amino-8-fluoro-5-[(6-isopropoxy-3-pyridyl)methyl]-7-[5-(4-oxa-7-azaspiro[2.5]octan-7-yl)-1,2,4-oxadiazol-3-yl]-1,1-dioxo-2,3-dihydro-1λ^6,5-benzothiazepin-4-one] | 214 | 1500 | 100 | 275 | 2140 | – | –
CC(C)(C)c1nnc(-c2cc3c(cc2F)S(=O)(=O)C[C@H](N)C(=O)N3Cc2ccc(OC3CCCC3)cc2)o1 [Example 253, (3R)-3-amino-7-(5-tert-butyl-1,3,4-oxadiazol-2-yl)-5-[[4-(cyclopentoxy)phenyl]methyl]-8-fluoro-1,1-dioxo-2,3-dihydro-1λ^6,5-benzothiazepin-4-one] | 198 | < 15.1 | 105 | 116 | 40.3 | – | –
CC(C)(C)c1nnc(-c2cc3c(cc2F)S(=O)(=O)C[C@H](N)C(=O)N3Cc2ccc(C(C)(C)C#N)cc2)o1 [Example 244, 2-methyl-2-[4-[[(3R)-3-amino-7-(5-tert-butyl-1,3,4-oxadiazol-2-yl)-8-fluoro-1,1,4-trioxo-2,3-dihydro-1λ^6,5-benzothiazepin-5-yl]methyl]phenyl]propanenitrile] | 836 | 236 | 1100 | 102 | 137 | – | –
Cc1ccc(S(C)(=O)=O)cc1-c1nc(-c2cc3c(cc2F)S(=O)(=O)C[C@H](N)C(=O)N3Cc2ccc(Cl)cc2)no1 [Example 311, (3R)-3-amino-5-[(4-chlorophenyl)methyl]-8-fluoro-7-[5-(2-methyl-5-methylsulfonyl-phenyl)-1,2,4-oxadiazol-3-yl]-1,1-dioxo-2,3-dihydro-1λ^6,5-benzothiazepin-4-one] | 43700 | 5040 | 69 | 67 | 1090 | – | –
COC(=O)N1CCC(c2nnc(-c3ccc4c(c3)N(Cc3ccc(OC5CCCC5)cc3)C(=O)[C@@H](N)CS4(=O)=O)o2)C1 (stereo partly drawn) [Example 444, methyl 3-[5-[(3R)-3-amino-5-[[4-(cyclopentoxy)phenyl]methyl]-1,1,4-trioxo-2,3-dihydro-1λ^6,5-benzothiazepin-7-yl]-1,3,4-oxadiazol-2-yl]pyrrolidine-1-carboxylate] | 6110 | > 10000 | 1910 | 99 | 2370 | – | –
CC(C)(C)c1nc(-c2cc3c(cc2F)S(=O)(=O)C[C@H](N)C(=O)N3Cc2ccc(OC3CCCC3)cc2)no1 [Example 350, (3R)-3-amino-7-(5-tert-butyl-1,2,4-oxadiazol-3-yl)-5-[[4-(cyclopentoxy)phenyl]methyl]-8-fluoro-1,1-dioxo-2,3-dihydro-1λ^6,5-benzothiazepin-4-one] | 1610 | 312 | 235 | 256 | 208 | – | –
CC(C)(CO)n1nnc(-c2cc3c(cc2F)S(=O)(=O)C[C@H](N)C(=O)N3Cc2ccc(Cl)cc2)n1 [Example 28, (3R)-3-amino-5-[(4-chlorophenyl)methyl]-8-fluoro-7-[2-(2-hydroxy-1,1-dimethyl-ethyl)tetrazol-5-yl]-1,1-dioxo-2,3-dihydro-1λ^6,5-benzothiazepin-4-one] | 513 | 1110 | 672 | 129 | 1260 | – | –
N[C@H]1CS(=O)(=O)c2cc(F)c(-c3noc(C4(CO)CCCO4)n3)cc2N(Cc2ccc(Oc3ccccc3)cc2)C1=O (stereo partly drawn) [Example 521, (3R)-3-amino-8-fluoro-7-[5-[2-(hydroxymethyl)tetrahydrofuran-2-yl]-1,2,4-oxadiazol-3-yl]-1,1-dioxo-5-[(4-phenoxyphenyl)methyl]-2,3-dihydro-1λ^6,5-benzothiazepin-4-one] | 3000 | 783 | 338 | 189 | 622 | – | –
Cc1ccc(-c2nnc(-c3ccc4c(c3)N(Cc3ccc(Cl)cc3)C(=O)[C@@H](N)CS4(=O)=O)o2)cn1 [Example 390, (3R)-3-amino-5-[(4-chlorophenyl)methyl]-7-[5-(6-methyl-3-pyridyl)-1,3,4-oxadiazol-2-yl]-1,1-dioxo-2,3-dihydro-1λ^6,5-benzothiazepin-4-one] | 38500 | > 10000 | 2630 | 69 | 4510 | – | –
N[C@H]1CS(=O)(=O)c2ccc(-c3nnc(N4CCOC(C(F)F)C4)o3)cc2N(Cc2ccc(Cl)cc2)C1=O (stereo partly drawn) [Example 409, (3R)-3-amino-5-[(4-chlorophenyl)methyl]-7-[5-[2-(difluoromethyl)morpholin-4-yl]-1,3,4-oxadiazol-2-yl]-1,1-dioxo-2,3-dihydro-1λ^6,5-benzothiazepin-4-one] | 2870 | – | 795 | 95 | 3880 | – | –
